Assay results as given in patent publication US12630594B2, “Allergy antigen and epitope for same” (HOYU CO., LTD., priority 2017, dated 2026).
Where no end group is shown, it is not given here.

What was measured:
Assay type in all cases: binding, human
[1] = system: IgE antibody from one patient having allergies to salmons and bastard halibut; test: Confirmation of epitope cross-reactivity (ELISA, FIG. 5); details: for binding of IgE antibody to peptide: serum of fish-allergic patient with symptoms to salmon and bastard halibut vs serum mixture from 4 non-fish-allergic subjects, FIG. 5
Description: FIG. 5 is a diagram showing results of measuring […] using the sera of a fish-allergic patient and a non-fish-allergic subject as to a peptide of epitope No. 11 (SEQ ID NO: 160) having the amino acid sequence “SMVLVKMKEIAEAYL” derived from salmon heat shock cognate 70 kDa protein, and a peptide having the amino acid sequence “AMVLVKMKETAEAYL” derived from bastard halibut heat shock cognate 70 kDa protein. The numeric values on the ordinate represent absorbance for light at a wavelength of 450 nm.
Amino acids other than particularly important amino acids in the region (SEQ ID NO: 250) important for binding, in epitope No. 11 having the amino acid sequence “SMVLVKMKEIAEAYL” (SEQ ID NO: 160) found in salmon heat shock cognate 70 kDa protein in Table 3 were defined as any given amino acid (X). NCBI was searched for proteins having the resulting amino acid sequence “EXXXXYL” (SEQ ID NO: 248). As a result, the amino acid sequence “AMVLVKMKETAEAYL” (SEQ ID NO: 451) of bastard halibut heat shock 70 kDa protein (accession number: XP_019944736.1) was identified. […]
To be specific, ELISA was carried out according to the following procedure. • (1) The concentrations of the biotinylated peptides were adjusted to 1 μg/mL with PBST. • (2) Each peptide solution was added at 40 μL to each well of a 384-well plate coated with streptavidin, and shaken at room temperature for one hour. […] Absorbance at 450 nm was measured.
A peptide having this amino acid sequence “AMVLVKMKETAEAYL” of bastard halibut heat shock 70 kDa protein and a peptide having the amino acid sequence “SMVLVKMKEIAEAYL” of salmon heat shock cognate 70 kDa protein were each prepared by the same procedure as in Example 10(A), and the presence or absence of binding thereto of IgE antibodies present in the serum of a fish-allergic patient having allergy symptoms to salmon and bastard halibut and the serum of a non-fish-allergic subject (serum mixture from 4 subjects) was measured by the same technique as therein.

[2] = system: IgE antibodies from patients; test: Epitope mapping (2): overlapping 10-amino-acid peptide fragments shifted by one amino acid; details: positions numbered within the 15-amino-acid epitope; serum of 5 patients
Description: On the basis of the sequences (SEQ ID NOs: 150-154 for alpha-actinin-3, SEQ ID NO: 155 for EEF1A2 binding protein-like, SEQ ID NOs: 156 and 157 for alpha-1,4-glucan phosphorylase, SEQ ID NOs: 158 and 159 for elongation factor 2, SEQ ID NOs: 160-162 for heat shock cognate 70 kDa protein, SEQ ID NOs: 163-167 for serotransferrin, SEQ ID NOs: 168-171 for myosin binding protein H-like, SEQ ID NOs: 172-174 for desmin (fragment), SEQ ID NOs: 175-178 for capping protein (actin filament) muscle Z-line beta, SEQ ID NOs: 179-185 for myosin heavy chain, fast skeletal muscle-like, SEQ ID NO: 186 for glycogen phosphorylase, muscle form-like, SEQ ID NOs: 187-196 for myosin-binding protein C, fast-type-like, SEQ ID NO: 197 for ATP synthase subunit beta, mitochondrial, SEQ ID NO: 198 for L-lactate dehydrogenase A chain-like, SEQ ID NO: 199 for aldolase, SEQ ID NOs: 200-202 for β-enolase, and SEQ ID NOs: 203 and 204 for glyceraldehyde-3-phosphate dehydrogenase) of the peptides bound to an IgE antibody in serum in a patient-specific manner as described above in (A), a library of overlapping peptide fragments (length: 10 amino acids) was prepared using the sequences of the peptides and sequences in which sequences were added so as to flank each peptide in the amino acid sequences of allergen components (SEQ ID NO: 2 for alpha-actinin-3, SEQ ID NO: 5 for EEF1A2 binding protein-like, SEQ ID NO: 10 for alpha-1,4-glucan phosphorylase, SEQ ID NO: 19 for elongation factor 2, SEQ ID NO: 26 for heat shock cognate 70 kDa protein, SEQ ID NO: 33 for serotransferrin, SEQ ID NO: 43 for myosin binding protein H-like, SEQ ID NO: 56 for desmin (fragment), SEQ ID NO: 61 for capping protein (actin filament) muscle Z-line beta, SEQ ID NO: 70 for myosin heavy chain, fast skeletal muscle-like, SEQ ID NO: 110 for glycogen phosphorylase, muscle form-like, SEQ ID NO: 121 for myosin-binding protein C, fast-type-like, SEQ ID NO: 138 for ATP synthase subunit beta, mitochondrial, SEQ ID NO: 144 for L-lactate dehydrogenase A chain-like, SEQ ID NO: 445 for aldolase, SEQ ID NO: 446 for β-enolase, and SEQ ID NO: 447 for glyceraldehyde-3-phosphate dehydrogenase) comprising the sequences of the peptide. Epitope mapping was carried out using the library.
The peptides to be synthesized were shifted by one amino acid.
The library was prepared by the same procedure as described above in (A), and the presence or absence of binding of an IgE antibody present in the serum of a patient and a non-fish-allergic subject to each peptide fragment was measured by the same technique as described above. Amino acids at positions where the binding activity against IgE antibodies from patients were lost or decreased in the peptides shifted by one amino acid while binding activity against IgE antibodies from non-fish-allergic subjects arose were confirmed as amino acids adversely affecting the specificity of binding to IgE antibodies.
Chemiluminescence intensity in images obtained by measurement was converted into a numeric value in the same manner as in (A) using ImageQuant TL (GE Healthcare). […]

[3] = system: IgE antibody in the serum of a fish-allergic patient; test: Immunoblotting of two-dimensional electrophoresis patterns of fish meat proteins with patient serum; details: for spots detected by immunoblotting, different from spots with serum of non-fish-allergic subject: proteins contained in salmon meat; for specific binding to IgE antibodies from fish-allergic patients: spots in two-dimensional electrophoresis gel of proteins in fish, patients diagnosed with immediate-type allergy
Experimental: Proteins contained in fish were analyzed by the aforementioned technique to identify antigens of an allergy to fish. To be specific, proteins were extracted from fish meat and subjected to two-dimensional electrophoresis under the conditions described below.
The electrophoresis in the first dimension was isoelectric focusing, which was performed using isoelectric focusing gels with a gel-strip length of 5 to 10 cm and a gel pH range of 3 to 10. The pH gradient of the gels in the direction of electrophoresis was as follows: with the total gel-strip length being taken as 1, the gel-strip length up to pH 5 was “a=0.15 to 0.3”, the gel-strip length from pH 5 to 7 was “b=0.4 to 0.7”, and the gel-strip length above pH 7 was “c=0.15 to 0.3”. More specifically, the isoelectric focusing was performed using the IPG gels, Immobiline Drystrip (pH3-10NL), produced by GE Healthcare Bio-Sciences Corporation (hereinafter abbreviated as “GE”). The electrophoresis system used was IPGphor produced by GE. The maximum current of the electrophoresis system was limited to 75 μA per gel strip. The voltage program adopted to perform the first-dimensional isoelectric focusing was as follows: (1) a constant voltage step was performed at a constant voltage of 300 V until the volt-hours reached 750 Vhr (the current variation width during electrophoresis for 30 minutes before the end of this step was 5 μA); (2) the voltage was increased gradually to 1000 V for 300 Vhr; (3) the voltage was further increased gradually to 5000 V for 4500 Vhr; and then (4) the voltage was held at a constant voltage of 5000 V until the total Vhr reached 12000.
The electrophoresis in the second dimension was SDS-PAGE, which was performed using polyacrylamide gels whose gel concentration at the distal end in the direction of electrophoresis was set to 3 to 6% and whose gel concentration at the proximal end was set to a higher value than that at the distal end. More specifically, the SDS-PAGE was performed using NuPAGE 4-12% Bris-Tris Gels (IPG well, Mini, 1 mm) produced by Life Technologies. The electrophoresis system used was XCell SureLock Mini-Cell produced by Life Technologies. The electrophoresis was run at a constant voltage of 200 V for about 45 minutes using an electrophoresis buffer composed of 50 mM MOPS, 50 mM Tris base, 0.1% (w/v) SDS and 1 mM EDTA.
Identification of antigens by immunoblotting was carried out by taking all the steps up to the step of “Second-dimensional SDS-PAGE” as described above in Example 1, followed by the steps of “Transfer to membrane”, “Immunoblotting” and “Analysis” as described below.
To be specific, proteins in the second-dimensional electrophoresis gels were transferred to a membrane (PVDF membrane) according to the following procedure. • (1) The PVDF membrane was immersed in 100% methanol followed by milliQ water, and then moved into the transfer buffer to hydrophilize the PVDF membrane. • (2) After sponge, filter paper, the second-dimensional electrophoresis gels treated by second-dimensional SDS-PAGE, the hydrophilized PVDF membrane, filter paper, and sponge were put in place in this order, the transfer system was energized at a constant voltage of 30 V for one hour. Immunoblotting
Immunoblotting of the membrane was carried out using, as a primary antibody, a serum sample from patient 1 with a fish allergy or a serum sample from a non-fish-allergic subject. This fish-allergic patient 1 was a patient diagnosed with immediate-type allergy to fish. […]

[4] = serum from fish-allergic patient 3 (FIG. 1B right)
[5] = serum from fish-allergic patient 2 (FIG. 1B left)

11 (SMVLVKMKEIAEAYL; not fully specified (N-terminus)) [compound 11]
epitope cross-reactivity ([1]; between fish species): cross-reactivity between the fish species salmon and bastard halibut | Positions of amino acids of region important for binding in epitope [2]: 9-15

AMVLVKMKETAEAYL (not fully specified (N-terminus))
binding of IgE antibody to peptide [1]: bound in a patient-specific manner

ATP synthase subunit beta, mitochondrial [Spot 13]
spots detected by immunoblotting, different from spots with serum of non-fish-allergic subject [3, 4]: newly detected | specific binding to IgE antibodies from fish-allergic patients [3]: specific binding to IgE antibodies

Capping protein (actin filament) muscle Z-line beta [Spot 9]
spots detected by immunoblotting, different from spots with serum of non-fish-allergic subject [3, 5]: detected | specific binding to IgE antibodies from fish-allergic patients [3]: specific binding to IgE antibodies

Elongation factor 2 [Spot 4]
specific binding to IgE antibodies from fish-allergic patients [3]: specific binding to IgE antibodies

Heat shock cognate 70 kDa protein [Spot 5]
specific binding to IgE antibodies from fish-allergic patients [3]: specific binding to IgE antibodies

L-lactate dehydrogenase A chain-like [Spot 14]
spots detected by immunoblotting, different from spots with serum of non-fish-allergic subject [3, 5]: newly detected | specific binding to IgE antibodies from fish-allergic patients [3]: specific binding to IgE antibodies

Myosin heavy chain, fast skeletal muscle-like [Spot 10]
spots detected by immunoblotting, different from spots with serum of non-fish-allergic subject [3, 4]: newly detected | specific binding to IgE antibodies from fish-allergic patients [3]: specific binding to IgE antibodies

SMVLVKMKEIAEAYL (not fully specified (N-terminus)) [Epitope No. 11]
binding of IgE antibody to peptide [1]: bound in a patient-specific manner
